Where “and” joins values, the source holds several entries; their conditions need not be identical. Equal values may be shown once. Read-outs that look alike come from different tables or passages of the source.
Key:
[1] = tested on: VEGF-induced retinal vascular permeability; assay: Retinal vascular permeability suppression by oral administration in rat model where VEGF-induced retinal vascular permeability was increased; type: in vivo; conditions: oral 10, 30 or 100 mg/kg; vitreous protein 24 hours after intravitreal rat VEGF164 400 ng/eye; FIG. 1
Method: Experiment 1. Retinal vascular permeability suppression by oral administration of Compound A in rat model where VEGF-induced retinal vascular permeability was increased A rat model where VEGF-induced retinal vascular permeability was increased was used to evaluate the ability of suppressing an increase of the retinal vascular permeability by Compound A. The animal model was prepared with appropriate modifications based on Non-Patent Literature 3, etc. As experimental animals, male Brown Norway rats aged 8 weeks {CHARLES RIVER LABORATORIES JAPAN, INC.} were used. Inside the vitreous body of each eye of rats, rat VEGF164 {400 ng/eye, R&D Systems, Inc.} was injected <VEGF-administered group>. Inside the vitreous body of each eye of rats in a normal control group, D-PBS (-) {Sigma-Aldrich Corporation} was intravitreally injected. Each group included four rats <eight eyeballs>. […] The protein concentration in the sampled vitreous body was determined by the Bradford method. The rate of suppressing an increase of the retinal vascular permeability was calculated according to the following equation X. Rate of suppressing increase of retinal vascular permeability (%)=(PB-PX)/(PB-PA)×100 [Equation X] […]

[2] = tested on: VEGF-induced retinal vascular permeability; assay: Retinal vascular permeability suppression by intravitreal injection in rat model where VEGF-induced retinal vascular permeability was increased; type: in vivo; conditions: intravitreal 10, 30 or 100 μg/eye mixed with rat VEGF164 400 ng/eye; vitreous protein at 24 hours; FIG. 2
Method: Experiment 2. Retinal vascular permeability suppression by intravitreal injection of Compound A in rat model where VEGF-induced retinal vascular permeability was increased As experimental animals, male Brown Norway rats aged 8 weeks {CHARLES RIVER LABORATORIES JAPAN, INC.} were used. A mixture of rat VEGF164 {400 ng/eye, R&D Systems, Inc.} and Compound A (10 μg/eye, 30 μg/eye or 100 μg/eye) dissolved or suspended in a base was injected into the vitreous body of each eye of rats <Compound A-administered group>. In the vitreous body of each eye of rats of a base-administered group, a mixture of rat VEGF164 and the base of the same volume as that of the Compound A-administered group was injected. As the base, an aqueous base was used. In the vitreous body of each eye of rats of a normal control group, D-PBS (-) {Sigma-Aldrich Corporation} was injected. Each group included four rats <eight eyeballs>. At 24 hours after intravitreal injection of VEGF, rats were euthanized, and the eyeballs of the rats were enucleated while avoiding contamination with blood. […] The protein concentration in the sampled vitreous body was determined by the Bradford method. The rate of suppressing an increase of the retinal vascular permeability was calculated according to the following equation X. Rate of suppressing increase of retinal vascular permeability (%)=(PB-PX)/(PB-PA)×100 [Equation X] […]

[3] = Plasma concentration after single oral administration to rats (LC-MS); type: in vivo; conditions: rat, oral 100 mg/kg single; for concentration at 0.5 h / concentration at 1 h / concentration at 2 h / concentration at 4 h / concentration at 6 h / concentration at 24 h: male, Crl:CD <SD>, plasma, po, 100 mg/kg
Method: (§1) Experiment 3. Ocular tissue distribution and systematic exposure of Compound A orally administered or intravitreally injected
(§2) As experimental animals, male Crl:CD <SD> rats aged 8 weeks {CHARLES RIVER LABORATORIES JAPAN, INC.} were used.
(§3) Compound A suspended in a 1% (w/v) methylcellulose aqueous solution was orally administered to rats at 100 mg/kg. At 0.5, 1, 2, 4, 6 and 24 hours after oral administration, plasma and neural retina were sampled, and the concentrations of Compound A in the plasma and in the neural retina were quantified by liquid chromatography mass spectrometry <LC-MS>.
(§4) Transition of plasma concentration of Compound A orally administered (100 mg/kg) was shown in Table 1, transition of neural retina concentration of Compound A orally administered (100 mg/kg) was shown in Table 2, and transition of neural retina concentration of Compound A intravitreally injected (10 μg/eye) was shown in Table 3.

[4] = Neural retina concentration after intravitreal injection to rats (LC-MS); type: in vivo; conditions: rat, intravitreal 10 μg/eye
Method: as §1, §2
In the vitreous body of each eye of rats, Compound A dissolved or suspended in a base was injected at 10 μg/eye. At 1, 2, 4 and 24 hours after intravitreal injection, neural retina was sampled, and the concentration of Compound A in the neural retina was quantified by LC-MS. Each group included two to three rats <four to six eyeballs>.
as §4

[5] = Neural retina concentration after single oral administration to rats (LC-MS); type: in vivo, rat
Method: as §1, §2, §3, §4

SMILES: C[C@H]1CN(C(=O)CC#N)[C@]12CCN(c1ncnc3[nH]ccc13)C2 [Compound A, 3-[(3S,4R)-3-Methyl-6-(7H-pyrrolo[2,3-d]pyrimidin-4-yl)-1,6-diazaspiro[3.4]octan-1-yl]-3-oxopropanenitrile]
- suppression of retinal vascular permeability [1]: suppression of retinal vascular permeability
- suppression of retinal vascular permeability [2]: suppression of retinal vascular permeability
- concentration at 0.5 h ([3]; 0.5 hr, average, read-out: Plasma concentration of Compound A, Average): 6320 ng/mL
- concentration at 0.5 h ([3]; 0.5 hr, individual animal, read-out: Plasma concentration of Compound A): 5810 ng/mL
- concentration at 1 h ([3]; 1 hr, average, read-out: Plasma concentration of Compound A, Average): 8260 ng/mL
- concentration at 1 h ([3]; 1 hr, individual animal, read-out: Plasma concentration of Compound A): 7950 ng/mL
- concentration at 2 h ([3]; 2 hr, average, read-out: Plasma concentration of Compound A, Average): 6350 ng/mL
- concentration at 2 h ([3]; 2 hr, individual animal, read-out: Plasma concentration of Compound A): 6520 ng/mL
- concentration at 4 h ([3]; 4 hr, average, read-out: Plasma concentration of Compound A, Average): 4140 ng/mL
- concentration at 4 h ([3]; 4 hr, individual animal, read-out: Plasma concentration of Compound A): 4860 ng/mL
- concentration at 6 h ([3]; 6 hr, average, read-out: Plasma concentration of Compound A, Average): 4050 ng/mL
- concentration at 6 h ([3]; 6 hr, individual animal, read-out: Plasma concentration of Compound A): 3040 ng/mL
- concentration at 24 h ([3]; 24 hr, average, read-out: Plasma concentration of Compound A, Average): 20 ng/mL
- concentration at 24 h ([3]; 24 hr, individual animal, read-out: Plasma concentration of Compound A): 30 ng/mL
- Plasma concentration of Compound A ([3]; 0.5 hr, individual animal): 6830 ng/mL
- Plasma concentration of Compound A ([3]; 1 hr, individual animal): 8570 ng/mL
- Plasma concentration of Compound A ([3]; 2 hr, individual animal): 6180 ng/mL
- Plasma concentration of Compound A ([3]; 4 hr, individual animal): 3410 ng/mL
- Plasma concentration of Compound A ([3]; 6 hr, individual animal): 5060 ng/mL
- Plasma concentration of Compound A ([3]; 24 hr, individual animal): 20 ng/mL
- concentration at 1 h ([4]; male, Crl:CD <SD>, neural retina, other: intravitreal injection, 10 μg/eye, 1 hr, average, read-out: Neural retina concentration of Compound A, Average): 45000 ng/mL
- concentration at 1 h ([4]; male, Crl:CD <SD>, neural retina, other: intravitreal injection, 10 μg/eye, 1 hr, individual eye, read-out: Neural retina concentration of Compound A): 39500 ng/mL
- concentration at 2 h ([4]; male, Crl:CD <SD>, neural retina, other: intravitreal injection, 10 μg/eye, 2 hr, average, read-out: Neural retina concentration of Compound A, Average): 9690 ng/mL
- concentration at 4 h ([4]; male, Crl:CD <SD>, neural retina, other: intravitreal injection, 10 μg/eye, 4 hr, average, read-out: Neural retina concentration of Compound A, Average): 1550 ng/mL
- Neural retina concentration of Compound A ([4]; 1 hr, individual eye): 52.66 µg/mL and 45.53 µg/mL and 42.17 µg/mL
- Neural retina concentration of Compound A ([4]; 2 hr, individual eye): 6.28 µg/mL and 13.49 µg/mL and 4.73 µg/mL and 12.71 µg/mL and 15.78 µg/mL and 5.13 µg/mL
- Neural retina concentration of Compound A ([4]; 4 hr, individual eye): 2.07 µg/mL and 2.64 µg/mL and 0.27 µg/mL and 1.42 µg/mL and 1.66 µg/mL and 1.26 µg/mL
- Neural retina concentration of Compound A ([4]; 24 hr, individual eye): BLQ (Below the lower limit of quantification (ca. 0.16 μg/g))
- passage through the blood-retina barrier [5]: passes through the blood-retina barrier
- concentration at 0.5 h ([5]; male, Crl:CD <SD>, rat, neural retina, po, 100 mg/kg, rat, oral 100 mg/kg single, 0.5 hr, average, read-out: Neural retina concentration of Compound A, Average): 3740 ng/mL
- concentration at 0.5 h ([5]; male, Crl:CD <SD>, rat, neural retina, po, 100 mg/kg, rat, oral 100 mg/kg single, 0.5 hr, individual eye, read-out: Neural retina concentration of Compound A): 2960 ng/mL
- concentration at 1 h ([5]; male, Crl:CD <SD>, rat, neural retina, po, 100 mg/kg, rat, oral 100 mg/kg single, 1 hr, average, read-out: Neural retina concentration of Compound A, Average): 3860 ng/mL
- concentration at 1 h ([5]; male, Crl:CD <SD>, rat, neural retina, po, 100 mg/kg, rat, oral 100 mg/kg single, 1 hr, individual eye, read-out: Neural retina concentration of Compound A): 3930 ng/mL
- concentration at 2 h ([5]; male, Crl:CD <SD>, rat, neural retina, po, 100 mg/kg, rat, oral 100 mg/kg single, 2 hr, average, read-out: Neural retina concentration of Compound A, Average): 2720 ng/mL
- concentration at 2 h ([5]; male, Crl:CD <SD>, rat, neural retina, po, 100 mg/kg, rat, oral 100 mg/kg single, 2 hr, individual eye, read-out: Neural retina concentration of Compound A): 2660 ng/mL
- concentration at 4 h ([5]; male, Crl:CD <SD>, rat, neural retina, po, 100 mg/kg, rat, oral 100 mg/kg single, 4 hr, average, read-out: Neural retina concentration of Compound A, Average): 2390 ng/mL
- concentration at 4 h ([5]; male, Crl:CD <SD>, rat, neural retina, po, 100 mg/kg, rat, oral 100 mg/kg single, 4 hr, individual eye, read-out: Neural retina concentration of Compound A): 2300 ng/mL
- concentration at 6 h ([5]; male, Crl:CD <SD>, rat, neural retina, po, 100 mg/kg, rat, oral 100 mg/kg single, 6 hr, average, read-out: Neural retina concentration of Compound A, Average): 1920 ng/mL
- Neural retina concentration of Compound A ([5]; rat, oral 100 mg/kg single, 0.5 hr, individual eye, 100 mg/kg): 4.42 µg/mL and 4.89 µg/mL and 2.70 µg/mL
- Neural retina concentration of Compound A ([5]; rat, oral 100 mg/kg single, 1 hr, individual eye, 100 mg/kg): 4.48 µg/mL and 3.24 µg/mL and 3.80 µg/mL
- Neural retina concentration of Compound A ([5]; rat, oral 100 mg/kg single, 2 hr, individual eye, 100 mg/kg): 2.12 µg/mL and 3.38 µg/mL
- Neural retina concentration of Compound A ([5]; rat, oral 100 mg/kg single, 4 hr, individual eye, 100 mg/kg): 2.54 µg/mL and 2.29 µg/mL and 2.43 µg/mL
- Neural retina concentration of Compound A ([5]; rat, oral 100 mg/kg single, 6 hr, individual eye, 100 mg/kg): 2.90 µg/mL and 2.24 µg/mL and 1.05 µg/mL and 1.47 µg/mL
- Neural retina concentration of Compound A ([5]; rat, oral 100 mg/kg single, 24 hr, individual eye): BLQ (Below the lower limit of quantification (ca. 0.16 μg/g))

Reference: patent US20160367556A1, “Therapeutic Agent for Ocular Disease or Prophylactic Agent for Ocular Disease” (Japan Tobacco Inc., priority 2013, published 2016)
